According to ChEMBL document CHEMBL1201862, “PubChem BioAssay data set” (2004):
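1) Cells in 96-well plates. 2) Compound, 48 h, 5 concentrations. 3) Linear interpolation between surrounding doses. 4) Unreached endpoint = highest concentration. GI50 is the concentration that inhibits growth by half.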 Calls of active or inactive are those of the source. No stated cut-off is given here; in the data, active = GI50 up to about 1.1 µM and inactive = higher.

What was measured:
Assay in all cases: NCI tumour cell line growth inhibition, 48 h
SF-268 = tested on: SF-268
TK-10 = tested on: TK-10
SNB-75 = tested on: SNB-75
SF-295 = tested on: SF-295
786-0 = tested on: 786-0
KM12 = tested on: KM12
PC-3 = tested on: PC-3
SK-MEL-2 = tested on: SK-MEL-2
M14 = tested on: M14
HL-60 = tested on: HL-60
BT-549 = tested on: BT-549
OVCAR-4 = tested on: OVCAR-4
NCI-H23 = tested on: NCI-H23
DU-145 = tested on: DU-145
MDA-N = tested on: MDA-N
SN12C = tested on: SN12C
CCRF-CEM = tested on: CCRF-CEM
SW-620 = tested on: SW-620
UO-31 = tested on: UO-31

Row | Structure (SMILES) | GI50 (SF-268) | GI50 (TK-10) | GI50 (SNB-75) | GI50 (SF-295) | GI50 (786-0) | GI50 (KM12) | GI50 (PC-3) | GI50 (SK-MEL-2) | GI50 (M14) | GI50 (HL-60) | GI50 (BT-549) | GI50 (OVCAR-4) | GI50 (NCI-H23) | GI50 (DU-145) | GI50 (MDA-N) | GI50 (SN12C) | GI50 (CCRF-CEM) | GI50 (SW-620) | GI50 (UO-31)
1 | O=C(O)c1nc2nc(Cl)c(Cl)nc2[nH]1 | > 100 µM (inactive) | > 100 µM (inactive) | > 100 µM (inactive) | > 100 µM (inactive) | > 100 µM (inactive) | > 100 µM (inactive) | > 100 µM (inactive) | > 100 µM (inactive) | > 100 µM (inactive) | > 100 µM (inactive) | > 100 µM (inactive) | > 100 µM (inactive) | > 100 µM (inactive) | > 100 µM (inactive) | > 100 µM (inactive) | > 100 µM (inactive) | > 100 µM (inactive) | > 100 µM (inactive) | 
2 | Cc1ccc(NC(S)=Nc2c(C)n(C)n(-c3ccccc3)c2=O)cc1 | > 100 µM (inactive) | > 100 µM (inactive) | > 100 µM (inactive) | > 100 µM (inactive) | > 100 µM (inactive) | > 100 µM (inactive) | > 100 µM (inactive) |  | > 100 µM (inactive) | 32.2 µM (inactive) | > 100 µM (inactive) |  | > 100 µM (inactive) | > 100 µM (inactive) | > 100 µM (inactive) |  | > 100 µM (inactive) | > 100 µM (inactive) | > 100 µM (inactive)
3 | Cc1sc(NC=C2C(=O)CC(C)(C)CC2=O)nc1-c1ccccc1 | > 100 µM (inactive) | > 100 µM (inactive) | > 100 µM (inactive) | > 100 µM (inactive) | > 100 µM (inactive) | > 100 µM (inactive) | > 100 µM (inactive) | > 100 µM (inactive) | > 100 µM (inactive) | 2.17 µM (inactive) | > 100 µM (inactive) | > 100 µM (inactive) | > 100 µM (inactive) | > 100 µM (inactive) | > 100 µM (inactive) | > 100 µM (inactive) | 72.6 µM (inactive) | > 100 µM (inactive) | > 100 µM (inactive)
4 | CNC(=S)/C(=N\Nc1[nH]cnc1C(N)=O)C(N)=S | 3.18 µM (inactive) | 1.24 µM (inactive) | 6.82 µM (inactive) | 3.36 µM (inactive) | 7.71 µM (inactive) | 4.09 µM (inactive) | 5.52 µM (inactive) | 0.875 µM (active) | 1.1 µM (active) |  | 29.9 µM (inactive) | 4.17 µM (inactive) | 17.3 µM (inactive) | 1.2 µM (inactive) | 4.34 µM (inactive) | 2.44 µM (inactive) | 0.689 µM (active) | 3.78 µM (inactive) | 1.61 µM (inactive)
5 | COC(=O)c1ccc(C)cc1CC1Cc2cccc(C)c2C1=O (configuration not stated) | 7.98 µM (inactive) | 12.9 µM (inactive) | 5.02 µM (inactive) | 6.49 µM (inactive) | 14.6 µM (inactive) | 4.08 µM (inactive) | 8.34 µM (inactive) | 4.34 µM (inactive) | 3.93 µM (inactive) |  | 9.77 µM (inactive) | 19.2 µM (inactive) | 11.1 µM (inactive) | 11.9 µM (inactive) | 1.87 µM (inactive) | 10.2 µM (inactive) | 4.73 µM (inactive) | 3.72 µM (inactive) | 13.4 µM (inactive)
6 | C[C@@H](c1ccccc1)n1c(N)c(C#N)c2ccc([N+](=O)[O-])cc2c1=O | 29.7 µM (inactive) | 11.6 µM (inactive) | 5.51 µM (inactive) |  | 15 µM (inactive) | 16.7 µM (inactive) | > 100 µM (inactive) | > 100 µM (inactive) |  | 8.75 µM (inactive) | 1.69 µM (inactive) | 14.2 µM (inactive) | 18.9 µM (inactive) | 15.9 µM (inactive) | 23.1 µM (inactive) | 12 µM (inactive) | 14.6 µM (inactive) | 19.1 µM (inactive) | 5.12 µM (inactive)
7 | COc1ccccc1C(O)[C@@H]1C[C@@H]2[C@H]3CC[C@@](C)([C@@H]2O1)C3(C)C (some centres not stated) | 22.9 µM (inactive) | 21.8 µM (inactive) | 16.9 µM (inactive) | 18.4 µM (inactive) | 17.8 µM (inactive) | 20.8 µM (inactive) | 20.7 µM (inactive) | 18.1 µM (inactive) | 21.4 µM (inactive) | 20 µM (inactive) | 18.1 µM (inactive) |  | 19.5 µM (inactive) | 22.1 µM (inactive) | 16.7 µM (inactive) | 16.4 µM (inactive) | 20.8 µM (inactive) | 16.1 µM (inactive) | 17.9 µM (inactive)
8 | CCCCCCCC(CC(=O)NC(CO)C(=O)NC(CO)CC(C)C)OC(=O)CC(CCCCCCC)OC(=O)CC(CCCCCCC)OC1OC(C)C(O)C(OC2OC(C)C(O)C(O)C2OC(C)=O)C1O (configuration not stated) | 5.89 µM (inactive) | 13.3 µM (inactive) | 4.29 µM (inactive) | 10 µM (inactive) | 5 µM (inactive) | 2.74 µM (inactive) | 4.06 µM (inactive) |  | 5.69 µM (inactive) | 3 µM (inactive) | 12.5 µM (inactive) | 5.64 µM (inactive) | 7.8 µM (inactive) | 10.6 µM (inactive) | 3.46 µM (inactive) | 4.47 µM (inactive) | 3.15 µM (inactive) | 8.75 µM (inactive) | 16.9 µM (inactive)
9 | CC(C)(C)OC(=O)n1c(-c2ccccc2F)cc(=O)c2cc3c(cc21)OCO3 | 0.191 µM (active) | 4.66 µM (inactive) | 0.0318 µM (active) | 0.05 µM (active) | 0.0541 µM (active) | 0.028 µM (active) | 0.0391 µM (active) | 0.0531 µM (active) | 1.4 µM (inactive) | 0.0451 µM (active) | 19.8 µM (inactive) |  | 0.398 µM (active) | 0.0451 µM (active) | < 0.01 µM (active) |  | 0.0638 µM (active) | 0.0596 µM (active) | 0.188 µM (active)
10 | CN1C(=O)C(/C=N/NC(=O)c2cccnc2)C(N)N(C)C1=O (configuration not stated) | > 100 µM (inactive) | > 100 µM (inactive) | > 100 µM (inactive) | > 100 µM (inactive) | > 100 µM (inactive) | > 100 µM (inactive) | > 100 µM (inactive) | 35.3 µM (inactive) | > 100 µM (inactive) |  | > 100 µM (inactive) | > 100 µM (inactive) | > 100 µM (inactive) | > 100 µM (inactive) | > 100 µM (inactive) | > 100 µM (inactive) | > 100 µM (inactive) | > 100 µM (inactive) | > 100 µM (inactive)
11 | O=C(OC1CN2CCC1CC2)N(c1ccccc1)c1ccccc1 (configuration not stated) | > 100 µM (inactive) | 56.2 µM (inactive) | 46.2 µM (inactive) | 51.1 µM (inactive) | > 100 µM (inactive) |  | 69.2 µM (inactive) | > 100 µM (inactive) | 22.9 µM (inactive) | 24.9 µM (inactive) | > 100 µM (inactive) | > 100 µM (inactive) | > 100 µM (inactive) | > 100 µM (inactive) | > 100 µM (inactive) | > 100 µM (inactive) | 54.7 µM (inactive) |  | 86.9 µM (inactive)
12 | CCOC(=O)C(=Cc1ccccc1Cl)C(=O)OCC | 2.19 µM (inactive) |  | 0.0174 µM (active) | 2.47 µM (inactive) | 1.34 µM (inactive) | 1.31 µM (inactive) | 1.79 µM (inactive) | 2.03 µM (inactive) | 1.5 µM (inactive) | 1.23 µM (inactive) | 1.62 µM (inactive) | 2.27 µM (inactive) | 1.66 µM (inactive) | 1.92 µM (inactive) | 1.12 µM (active) | 1.6 µM (inactive) | 0.705 µM (active) | 1.32 µM (inactive) | 1.71 µM (inactive)
13 | CC(C)=Nn1cnc(C(=N)C#N)c1N | > 100 µM (inactive) | > 100 µM (inactive) | 37.1 µM (inactive) | 29.4 µM (inactive) | > 100 µM (inactive) |  | > 100 µM (inactive) | > 100 µM (inactive) | > 100 µM (inactive) | > 100 µM (inactive) | > 100 µM (inactive) | > 100 µM (inactive) | > 100 µM (inactive) | > 100 µM (inactive) | > 100 µM (inactive) |  | > 100 µM (inactive) | > 100 µM (inactive) | > 100 µM (inactive)
14 | Cc1ccc(NC(=S)NNC(=O)c2cc(-c3ccccc3)nc3ccccc23)cc1 | 15.8 µM (inactive) | 14 µM (inactive) | 12.2 µM (inactive) | 5.92 µM (inactive) | 13 µM (inactive) | 11.1 µM (inactive) | 12 µM (inactive) | 10.3 µM (inactive) | 11.9 µM (inactive) |  | 15.7 µM (inactive) | 17.9 µM (inactive) | 12.6 µM (inactive) | 12.9 µM (inactive) | 4.26 µM (inactive) | 16.2 µM (inactive) |  | 10.4 µM (inactive) | 12.7 µM (inactive)
15 | CN(C)Cc1cc(/N=N/c2ccc(Cl)c(Cl)c2)ccc1O | 3.61 µM (inactive) | 10.9 µM (inactive) | 7.13 µM (inactive) | 17.8 µM (inactive) | 11.5 µM (inactive) | 4.35 µM (inactive) | 11.6 µM (inactive) |  | 16 µM (inactive) | 2.52 µM (inactive) | 13.8 µM (inactive) | 7.28 µM (inactive) | 13.6 µM (inactive) | 4 µM (inactive) | 11.4 µM (inactive) | 14.7 µM (inactive) | 4.43 µM (inactive) | 11.1 µM (inactive) | 2.49 µM (inactive)
16 | CCOC(=O)NC(Nc1ccc(S(=O)(=O)Nc2ncccn2)cc1)(C(=O)OCC)C(F)(F)F (configuration not stated) | > 100 µM (inactive) |  | > 100 µM (inactive) | > 100 µM (inactive) | > 100 µM (inactive) | > 100 µM (inactive) | > 100 µM (inactive) | > 100 µM (inactive) | > 100 µM (inactive) | > 100 µM (inactive) | > 100 µM (inactive) | > 100 µM (inactive) | > 100 µM (inactive) | > 100 µM (inactive) | > 100 µM (inactive) | > 100 µM (inactive) | > 100 µM (inactive) | > 100 µM (inactive) | > 100 µM (inactive)
